The source of these data is patent publication US20240400553A1, “AMINE BASED MATRIPTASE 2 INHIBITORS AND USES THEREOF” (Disc Medicine, Inc., priority 2023, published 2024).

One may read the Ki as a dissociation constant, usually derived from enzyme kinetics or from competition with a known ligand.

SMILES strings stand for the structures. Where only a bound is given, the exact number is not on record here.

For the assay, the target named is T1, Human Recombinant Matriptase 2 (Homo sapiens, UniProt Q8IU80).
T1 construct: made in house
T1 sequence (Q8IU80 1-811): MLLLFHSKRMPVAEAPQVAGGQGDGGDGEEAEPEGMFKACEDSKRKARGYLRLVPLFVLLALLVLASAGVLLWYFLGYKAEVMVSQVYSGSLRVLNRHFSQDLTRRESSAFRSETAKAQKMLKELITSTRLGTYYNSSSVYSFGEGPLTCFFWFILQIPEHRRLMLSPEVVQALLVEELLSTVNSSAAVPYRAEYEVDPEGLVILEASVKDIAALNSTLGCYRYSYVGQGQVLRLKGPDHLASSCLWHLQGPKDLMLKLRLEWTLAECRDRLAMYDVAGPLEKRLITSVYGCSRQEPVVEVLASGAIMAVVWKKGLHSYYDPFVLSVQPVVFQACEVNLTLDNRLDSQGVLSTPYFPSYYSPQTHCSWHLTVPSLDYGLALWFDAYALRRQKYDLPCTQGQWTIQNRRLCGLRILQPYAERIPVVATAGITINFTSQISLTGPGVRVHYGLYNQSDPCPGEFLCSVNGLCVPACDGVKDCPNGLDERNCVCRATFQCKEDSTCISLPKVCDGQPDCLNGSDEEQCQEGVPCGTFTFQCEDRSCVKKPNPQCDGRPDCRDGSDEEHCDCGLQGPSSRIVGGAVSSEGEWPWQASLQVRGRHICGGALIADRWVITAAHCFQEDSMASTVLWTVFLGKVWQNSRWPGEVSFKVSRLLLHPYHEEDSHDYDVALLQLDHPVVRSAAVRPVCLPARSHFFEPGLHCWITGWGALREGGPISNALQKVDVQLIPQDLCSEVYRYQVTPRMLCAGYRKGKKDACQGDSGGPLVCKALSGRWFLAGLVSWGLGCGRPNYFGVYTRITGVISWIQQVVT
Nature of the assay: Matriptase 2 inhibition, fluorescence based assay (Method I). The assay is classed as biochemical. As to conditions: Table A; Ki of Matriptase-2; read-out: Mat-2 Ki. The procedure: • Method I: Test compounds were evaluated for their potential to inhibit Human Recombinant Matriptase 2 (in-house) using fluorescence based assay. The concentration of Recombinant Matriptase 2 and the substrate used in the assay was: 3.5 nM (In-house Matriptase 2) and 62 μM (Boc-Gln-Ala-Arg-7-amido-4-methyl coumarin hydrobromide −Cat log: I-1550 from Bachem) respectively. The assay buffer used was 50 mM TRIS pH 7.5, 150 mM NaCl, 0.01% Gelatin TCL059 Himedia). The assay was performed using 384 well black flat bottom plate from grenier (Cat log: 781076) at 25° C. The enzyme and compound were preincubated for 30 mins, the plate was read at 60 mins after substrate addition at wavelength Ex: 360/Em: 480 nm. The final assay volume was 20 μl. A stock solution of compounds was initially prepared in DMSO and appropriate dilutions were made and IC50 was determined for all the compounds (final DMSO conc in the assay was 1%). All the measurements were carried out using the Spectramax M5, Molecular devices.
To determine Ki values, dose response curves were generated by plotting percentage inhibition as a function of inhibitor concentration and the data was fitted to sigmoidal non-linear regression equation (variable slope) using Graph Pad prism software V8.
Consider `CC(CCN(C)C)S(=O)(=O)Nc1cc(Cn2c(C(=O)O)cc3ccc(CN)nc32)c2ccccc2c1` (racemic) [Compound 8, 6-(aminomethyl)-1-((3-((3-(dimethylamino)-1-methylpropyl)sulfonamido)naphthalen-1-yl)methyl)-1H-pyrrolo[2,3-b]pyridine-2-carboxylic acid], for which the Ki lay in the range of 100 to 500 nM.
Under `C[C@@H](c1ccccc1)S(=O)(=O)Nc1cc(Cn2c(C(=O)OCC3CCN(C)CC3)cc3ccc(CN)nc32)c2ccccc2c1` (racemic) [Compound 11, (1-methylpiperidin-4-yl)methyl 6-(aminometh-yl)-1-{[3-(1-phenyl-ethanesulfonamido)naph-thalen-1-yl]methyl}-1H-pyrrolo[2,3-b]pyridine-2-carboxylate] stands at most 100 nM; under `CN1CCC(COC(=O)c2cc3ccc(CN)nc3n2Cc2cc(NS(=O)(=O)[C@H](F)c3ccccc3)cc3ccccc23)CC1` (racemic) [Compound 23, (1-methylpiperidin-4-yl)methyl 6-(amino-methyl)-1-({3-[fluoro-(phenyl)methanesulfon-amido]naphthalen-1-yl}-methyl)-1H-pyrrolo[2,3-b]pyridine-2-carboxylate], at most 100 nM.
The result for `CN1CCC[C@H](COC(=O)c2cc3ccc(CN)nc3n2Cc2cc(NS(=O)(=O)Cc3ccccc3)cc3ccccc23)C1` (racemic) [Compound 24, (1-methylpiperidin-3-yl)methyl 6-(amino-methyl)-1-{[3-(phenyl-methanesulfonamido)-naphthalen-1-yl]methyl}-1H-pyrrolo[2,3-b]pyr-idine-2-carboxylate] reads at most 100 nM.
The result for `CN1CC[C@H](COC(=O)c2cc3ccc(CN)nc3n2Cc2cc(NS(=O)(=O)Cc3ccccc3)cc3ccccc23)CC1=O` (racemic) [Compound 30, rac-[(4R)-1-methyl-2-oxopiperidin-4-yl]meth-yl 6-(aminomethyl)-1-{[3-(phenylmethane-sulfonamido)naphthalen-1-yl]methyl}-1H-pyr-rolo[2,3-b]pyridine-2-carboxylate] reads at most 100 nM; that for `NCc1ccc2cc(C(=O)OCC[C@H]3CCCCN3)n(Cc3cc(NS(=O)(=O)Cc4ccccc4)cc4ccccc34)c2n1` (racemic) [Compound 32, 2-(piperidin-2-yl)ethyl 6-(aminomethyl)-1-{[3-(phenylmethanesulfon-amido)naphthalen-1-yl]-methyl}-1H-pyrrolo[2,3-b]pyridine-2-carboxylate], at most 100 nM; that for `CN1CC[C@H](CNC(=O)c2cc3ccc(CN)nc3n2Cc2cc(NS(=O)(=O)Cc3ccccc3)cc3ccccc23)CC1=O` (racemic) [Compound 37, rac-6-(aminomethyl)-N-{[(4R)-1-methyl-2-oxo-piperidin-4-yl]methyl}-1-{[3-(phenylmethane-sulfonamido)naphthalen-1-yl]methyl}-1H-pyr-rolo[2,3-b]pyridine-2-carboxamide], at most 100 nM.
On to `CN1CCN[C@@H](COC(=O)c2cc3ccc(CN)nc3n2Cc2cc(NS(=O)(=O)Cc3ccccc3)cc3ccccc23)C1` (racemic) [Compound 41, (4-methylpiperazin-2-yl)methyl 6-(aminometh-yl)-1-{[3-(phenylmeth-ane-sulfonamido)naph-thalen-1-yl]methyl}-1H-pyrrolo[2,3-b]pyridine-2-carboxylate], for which the Ki was at most 100 nM.
The result for `C[C@H](OC(=O)c1cc2ccc(CN)nc2n1Cc1cc(NS(=O)(=O)Cc2ccccc2)cc2ccccc12)C1CCN(C)CC1` (racemic) [Compound 48, 1-(1-methylpiperidin-4-ylethyl 6-(aminomethyl)-1-{[3-(phenylmethane-sulfonamido)naphthalen-1-yl]methyl}-1H-pyr-rolo[2,3-b]pyridine-2-carboxylate] reads at most 100 nM.
Under `CN1CCN(C)[C@@H](COC(=O)c2cc3ccc(CN)nc3n2Cc2cc(NS(=O)(=O)Cc3ccccc3)cc3ccccc23)C1` (racemic) [Compound 51, (1,4-dimethylpiperazin-2-yl)methyl 6-(amino-methyl)-1-{[3-(phenyl-methanesulfonamido)-naphthalen-1-yl]methyl}-1H-pyrrolo[2,3-b]pyr-idine-2-carboxylate] stands at most 100 nM.
